# Results: PubChem BioAssay (NCI)
#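 All cell lines were grown in 96-well plates and treated with compound for 48 hours. TGI denotes the concentration required for complete inhibition of growth.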
# Tests used:
# Experiment in all cases: growth of human tumour cells (NCI), 48 h
# [1] = system: HL-60(TB) leukemia
# [2] = system: UACC-257 melanoma
# [3] = system: HCT-15 colon
# [4] = system: RPMI-8226 leukemia
# [5] = system: SN12C renal
# [6] = system: CAKI-1 renal
# [7] = system: SF-295 CNS
# [8] = system: HOP-62 NSCLC
# [9] = system: NCI-H460 lung
# [10] = system: HS 578T breast
# [11] = system: SNB-19 CNS
# [12] = system: TK-10 renal
# [13] = system: SK-MEL-28 melanoma
# [14] = system: NCI-H23 lung
# [15] = system: HCC-2998 colon
# [16] = system: MCF7 breast
# [17] = system: SK-MEL-2 melanoma
# [18] = system: M14 melanoma
# [19] = system: PC-3 prostate
# [20] = system: HCT-116 colon
# [21] = system: MALME-3M melanoma
# [22] = system: SNB-75 CNS
# [23] = system: DU-145 prostate
# [24] = system: BT-549 breast
# [25] = system: OVCAR-5 ovarian
# [26] = system: SK-MEL-5 melanoma
# [27] = system: OVCAR-3 ovarian
# [28] = system: MDA-MB-435
# [29] = system: HT29 colon
# [30] = system: T-47D breast
# [31] = system: SF-268 CNS
# [32] = system: SR leukemia
# [33] = system: 786-0 renal
# [34] = system: IGROV1 ovarian
# [35] = system: NCI/ADR-RES ovarian
# [36] = system: U251 CNS
# [37] = system: COLO 205 colon
# [38] = system: MDA-N
# [39] = system: MOLT-4 leukemia
# [40] = system: A498 renal
# [41] = system: SF-539 CNS
# [42] = system: UO-31 renal
# [43] = system: EKVX NSCLC
# [44] = system: UACC-62 melanoma
# [45] = system: MDA-MB-231 breast
# [46] = system: OVCAR-8 ovarian
# [47] = system: LOX IMVI melanoma
# [48] = system: KM12 colon
# [49] = system: ACHN renal
# [50] = system: OVCAR-4 ovarian
# [51] = system: HOP-92 NSCLC
# [52] = system: CCRF-CEM leukemia
# [53] = system: A549 NSCLC
# [54] = system: NCI-H522 lung
# [55] = system: SW-620 colon
structure (smiles),measurement,setting,value
COc1cc(OC)cc(OCc2ccc3nc(-c4ccccc4)c(Cl)nc3c2)c1,TGI,[1],> 100 µM
same,TGI,[2],> 100 µM
same,TGI,[3],> 100 µM
same,TGI,[4],> 100 µM
same,TGI,[5],> 100 µM
same,TGI,[6],28.1 µM
same,TGI,[7],67.8 µM
same,TGI,[8],33.8 µM
same,TGI,[9],> 100 µM
same,TGI,[10],> 100 µM
same,TGI,[11],66.9 µM
same,TGI,[12],55.6 µM
same,TGI,[13],> 100 µM
same,TGI,[14],> 100 µM
same,TGI,[15],> 100 µM
same,TGI,[16],> 100 µM
same,TGI,[17],> 100 µM
same,TGI,[18],> 100 µM
same,TGI,[19],> 100 µM
same,TGI,[20],> 100 µM
same,TGI,[21],32.7 µM
same,TGI,[22],37.4 µM
same,TGI,[23],> 100 µM
same,TGI,[24],65.3 µM
same,TGI,[25],> 100 µM
same,TGI,[26],69.9 µM
same,TGI,[27],> 100 µM
same,TGI,[28],> 100 µM
same,TGI,[29],> 100 µM
same,TGI,[30],> 100 µM
same,TGI,[31],> 100 µM
same,TGI,[32],48 µM
same,TGI,[33],28.3 µM
same,TGI,[34],66.4 µM
same,TGI,[35],67.8 µM
same,TGI,[36],59.9 µM
same,TGI,[37],68.9 µM
same,TGI,[38],> 100 µM
same,TGI,[39],74.1 µM
same,TGI,[40],76.8 µM
same,TGI,[41],49.9 µM
same,TGI,[42],> 100 µM
same,TGI,[43],> 100 µM
same,TGI,[44],> 100 µM
same,TGI,[45],30.5 µM
same,TGI,[46],95.9 µM
same,TGI,[47],> 100 µM
same,TGI,[48],> 100 µM
same,TGI,[49],> 100 µM
same,TGI,[50],> 100 µM
same,TGI,[51],66.4 µM
same,TGI,[52],> 100 µM
same,TGI,[53],> 100 µM
same,TGI,[54],20.3 µM
same,TGI,[55],> 100 µM
